# Source: patent US8450494B2, “Disubstituted benzamide derivatives as glucokinase (GK) activators” (Cadila Healthcare Limited, priority 2010, dated 2013)
# Target: T1, glucokinase (GK) enzyme (Homo sapiens, UniProt P35557)
# T1 sequence (P35557 1-465): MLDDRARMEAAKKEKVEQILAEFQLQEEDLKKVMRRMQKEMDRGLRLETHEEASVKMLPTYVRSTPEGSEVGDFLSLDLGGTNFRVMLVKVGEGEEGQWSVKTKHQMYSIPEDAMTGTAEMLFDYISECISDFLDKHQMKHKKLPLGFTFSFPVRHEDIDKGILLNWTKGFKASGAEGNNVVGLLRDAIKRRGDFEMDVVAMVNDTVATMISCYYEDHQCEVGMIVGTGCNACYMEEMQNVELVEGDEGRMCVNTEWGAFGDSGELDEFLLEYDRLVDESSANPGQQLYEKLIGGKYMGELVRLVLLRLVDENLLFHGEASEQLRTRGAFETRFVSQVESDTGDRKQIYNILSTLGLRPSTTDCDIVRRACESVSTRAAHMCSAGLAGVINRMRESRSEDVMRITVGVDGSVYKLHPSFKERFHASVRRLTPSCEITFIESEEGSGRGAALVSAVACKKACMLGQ
# Assay: In-vitro glucokinase (GK) enzyme activation assay (coupled with glucose-6-phosphate dehydrogenase, absorbance at 340)
# Assay type: biochemical
# Details: glucose 2.5 mM, ATP 1 mM; for activity at 0.1 µM / activity at 1 µM / activity at 5 µM / activity at 10 µM: read-out: % of GK activity wrt DMSO
# Procedure: The compound of the invention was incubated with glucokinase (GK) enzyme (0.2 units) for 10 minutes in assay buffer at 26° C. After incubation, addition of glucose-6-phosphate dehydrogenase (2.5 units), ATP (1 mM) and glucose (2.5 mM). Absorbance is measured at 340 nm for 15 minutes with 10 second interval using UV transparent plate in kinetic mode on Spectramax-190 at 30° C.
SMILES,activity at 0.1 µM (compound 0.1 uM) [%],activity at 1 µM (compound 1 uM) [%],activity at 5 µM (compound 5 uM) [%],activity at 10 µM (compound 10 uM) [%],% of GK activity wrt DMSO (compound 0.1 uM) [%],% of GK activity wrt DMSO (compound 1 uM) [%],% of GK activity wrt DMSO (compound 5 uM) [%],% of GK activity wrt DMSO (compound 10 uM) [%]
"COCC(C)Oc1cc(Oc2cccc(-c3nnc(C)o3)c2)cc(C(=O)Nc2nccs2)c1 (stereo not drawn) [Example 2.21, 3-((1-Methoxypropan-2-yl)oxy)-5-(3-(5-methyl-1,3,4-oxadiazol-2-yl)phenoxy)-N-(thiazole-2-yl)benzamide]",179,287,318,293,–,–,–,–
"COCC(C)Oc1cc(Oc2ccc(-c3nnc(CC(C)C)o3)cc2)cc(C(=O)Nc2nccs2)c1 (stereo not drawn) [Example 2.22, 3-(4-(5-Isobutyl-1,3,4-oxadiazol-2-yl)phenoxy)-5-((1-methoxypropan-2-yl)oxy)-N-(thiazol-2-yl)benzamide]",153,323,436,418,–,–,–,–
"CCc1nnc(-c2ccc(Oc3cc(OC(C)COC)cc(C(=O)Nc4nccs4)c3)cc2)o1 (stereo not drawn) [Example 2.25, 3-(4-(5-Ethyl-1,3,4-oxadiazol-2-yl)phenoxy)-5-((1-methoxypropan-2-yl)oxy)-N-(thiazol-2-yl)benzamide]",224,384,439,418,–,–,–,–
"COCC(C)Oc1cc(Oc2ccc(-c3nnc(C4CC4)o3)cc2)cc(C(=O)Nc2nccs2)c1 (stereo not drawn) [Example 2.28, 3-(4-(5-Cyclopropyl-1,3,4-oxadiazol-2-yl)phenoxy)-5-((1-methoxypropan-2-yl)oxy)-N-(thiazol-2-yl)benzamide]",223,450,493,488,–,–,–,–
COCC(C)Oc1cc(Oc2ccc(-c3nnc(C4CCCC4)o3)cc2)cc(C(=O)Nc2nccs2)c1 (stereo not drawn) [Example 2.31],–,–,–,–,252.3,433.6,518.5,470.8

# Other lines, results leading:
activity at 0.1 µM (compound 0.1 uM) [%],activity at 1 µM (compound 1 uM) [%],activity at 5 µM (compound 5 uM) [%],activity at 10 µM (compound 10 uM) [%],% of GK activity wrt DMSO (compound 0.1 uM) [%],% of GK activity wrt DMSO (compound 1 uM) [%],% of GK activity wrt DMSO (compound 5 uM) [%],% of GK activity wrt DMSO (compound 10 uM) [%],SMILES
101,144,201,205,–,–,–,–,"CCOC(=O)c1cnc(NC(=O)c2cc(Oc3ccc(-c4nnc(C)o4)cc3)cc(OC(C)COC)c2)s1 (stereo not drawn) [Example 2.16, Ethyl 2-{3-[(1-methoxypropan-2-yl)oxy]-5-[4-(5-methyl-1,3,4-oxadiazol-2-yl)phenoxy]benzamido}thiazole-5-carboxylate]"
113,170,306,350,–,–,–,–,"COCC(C)Oc1cc(Oc2ccc(-c3nnc(C)o3)cc2)cc(C(=O)Nc2nc(C(=O)O)cs2)c1 (stereo not drawn) [Example 2.17, 2-{3-[(1-Methoxypropan-2-yl)oxy]-5-[4-(5-methyl-1,3,4-oxadiazol-2-yl)phenoxy]benzamido}thiazole-4-carboxylic acid]"
105,149,251,260,–,–,–,–,"COCC(C)Oc1cc(Oc2ccc(-c3nnc(C)o3)cc2)cc(C(=O)Nc2ncc(C(=O)O)s2)c1 (stereo not drawn) [Example 2.18, 2-{3-[(1-Methoxypropan-2-yl)oxy]-5-[4-(5-methyl-1,3,4-oxadiazol-2-yl)phenoxy]benzamido}thiazole-5-carboxylic acid]"
106,188,318,344,–,–,–,–,"CCOC(=O)c1csc(NC(=O)c2cc(Oc3ccc(-c4nnc(C)o4)cc3)cc(OC(C)COC)c2)n1 (stereo not drawn) [Example 2.19, Ethyl 2-{3-[(1-methoxypropan-2-yl)oxy]-5-[4-(5-methyl-1,3,4-oxadiazol-2-yl)phenoxy]benzamido}thiazole-4-carboxylate]"
251,405,436,408,–,–,–,–,"COC[C@H](C)Oc1cc(Oc2ccc(-c3nnc(C)o3)cc2)cc(C(=O)Nc2nc(C)cs2)c1 [Example 2.20, (S)-3-((1-Methoxypropan-2-yl)oxy)-5-(4-(5-methyl-1,3,4-oxadiazol-2-yl)phenoxy)-N-(4-methylthiazol-2-yl)benzamide]"
210,271,316,302,–,–,–,–,"COCC(C)Oc1cc(Oc2ccc(-c3nnc(C)o3)cc2)cc(C(=O)Nc2ncc(Br)s2)c1 (stereo not drawn) [Example 2.36, N-(5-Bromothiazol-2-yl)-3-((1-methoxypropan-2-yl)oxy)-5-(4-(5-methyl-1,3,4-oxadiazol-2-yl)phenoxy)benzamide]"
126,223,306,333,–,–,–,–,"COC[C@H](C)Oc1cc(Oc2ccc(-c3nnc(C)o3)cc2)cc(C(=O)Nc2ncc(C#N)s2)c1 [Example 2.42, (S)—N-(5-Cyanothiazol-2-yl)-3-((1-methoxypropan-2-yl)oxy)-5-(4-(5-methyl-1,3,4-oxadiazol-2-yl)phenoxy)benzamide]"
